What all share (experiment): NCI anticancer screen, dose series, 48 h
In assay [1] the test system is DU-145.
The subject of assay [2] is RPMI-8226.
The subject of assay [3] is Hs-578T.
Assay [4] has as its system Malme-3M.
The test system of assay [5] is U-251.
For assay [6], the system named is NCI-H522.
The subject of assay [7] is SK-MEL-28.
For assay [8], the system named is NCI-H23.
Assay [9] deals with MCF7.
Assay [10] concerns UO-31.
Assay [11] relates to OVCAR-8.
Assay [12] relates to HCT-15.
The subject of assay [13] is OVCAR-5.
The test system of assay [14] is OVCAR-3.
Assay [15] relates to T47D.
Assay [16] deals with SF-295.
For assay [17], the system named is SF-268.
The subject of assay [18] is KM12.
The test system of assay [19] is NCI-H460.
Assay [20] has as its system SNB-75.

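Exposure lasted 48 hours, with cells grown in 96-well plates and compounds tested at five concentrations. GI50: concentration for 50% inhibition of growth.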 Active and inactive are the calls of the source. Rule as the data show it: active = GI50 up to about 1.1 µM and inactive = higher.

In the case of `O=C(O)c1cc2cc(OCc3ccccc3)ccc2[nH]1`, the GI50 in [1] was > 100 µM (inactive); in assay [2], > 100 µM (inactive); in [3] it was 4.72 µM (inactive); in assay [4] it was 0.116 µM (active); in assay [5], > 100 µM (inactive); in [6] it was > 100 µM (inactive). Besides, the GI50 in [7] was 4.01 µM (inactive); in [8], > 100 µM (inactive); in assay [9], 88.1 µM (inactive); in assay [10], > 100 µM (inactive); in assay [11], > 100 µM (inactive); in [12], over 100 µM. Further, the GI50 in assay [13], in assay [14], in assay [15], in assay [16], in [17] and in [18] was > 100 µM (inactive) throughout. Besides, in assay [19], the GI50 is > 100 µM (inactive).

Regarding `COc1ccc2c(c1)/C(=C\c1c(Cl)[nH]c3ccccc13)C(=O)N2`, the GI50 was 19.3 µM (inactive) in [1]; 3.61 µM (inactive) in [2]; 2.51 µM (inactive) in [3]; 5.92 µM (inactive) in [4]; 3.71 µM (inactive) in assay [5]; 3.05 µM (inactive) in [6]. In addition, the GI50 in [7] is 3.39 µM (inactive); in assay [8] it was 11.4 µM (inactive); in assay [9], 3.58 µM (inactive); in assay [10], 6.78 µM (inactive); in [11], 11.1 µM (inactive); in assay [12], 5.14 µM. Besides, the GI50 in [13] is 10.9 µM (inactive); in assay [14], 6 µM (inactive); in assay [15], 26.1 µM (inactive); in [16], 1.97 µM (inactive); in [17], 4 µM (inactive); in assay [18] it was 3.05 µM (inactive). In addition, the GI50 in [19] is 3.98 µM (inactive).

With `Nc1ncnc2c1ncn2C1OC(CO)CC1O` (configuration not stated), the GI50 in [1] is 30.1 µM (inactive); in assay [3], 25.5 µM (inactive); in assay [5], 41.7 µM (inactive); in assay [6], 18 µM (inactive); in assay [7], 25.6 µM (inactive); in [8] it was 90.8 µM (inactive). In addition, the GI50 in assay [9] was 6.08 µM (inactive); in [20], 35.2 µM (inactive); in assay [10] it was > 100 µM (inactive); in assay [11] it was 16.6 µM (inactive); in [12], 17.6 µM; in [13], > 100 µM (inactive). The GI50 in [14] was 39.3 µM (inactive); in assay [16] it was 58.7 µM (inactive); in assay [17], 53.7 µM (inactive); in [18], 22 µM (inactive).

Turning to `COP(=O)(O)C(N)Cc1c[nH]c2ccccc12` (configuration not stated), the GI50 in assay [1], in [2], in assay [3], in [5], in [6] and in [7] was > 100 µM (inactive) throughout. Further, the GI50 in [8] is > 100 µM (inactive); in [9], > 100 µM (inactive); in assay [10], > 100 µM (inactive); in assay [11] it was > 100 µM (inactive); in assay [12], over 100 µM; in [13], > 100 µM (inactive). Further, the GI50 in [14], in assay [15], in assay [16] and in [19] was > 100 µM (inactive) throughout.

For the molecule `Cc1cc(O)c(C(C)C)cc1C(=S)Nc1ccc(Cl)cc1`, the GI50 was 17.7 µM (inactive) in assay [1]; 8.3 µM (inactive) in assay [2]; 9.1 µM (inactive) in assay [3]; 7.52 µM (inactive) in [4]; 14.7 µM (inactive) in assay [5]; 5.61 µM (inactive) in assay [6]. The GI50 in assay [7] was 13.9 µM (inactive); in assay [8], 5.93 µM (inactive); in assay [9], 8.11 µM (inactive); in assay [11], 10.6 µM (inactive); in assay [12], 10.7 µM; in [13], 15 µM (inactive). Besides, the GI50 was 14.7 µM (inactive) in assay [14]; 11.6 µM (inactive) in assay [15]; 14.2 µM (inactive) in assay [16]; 7 µM (inactive) in [17]; 10.1 µM (inactive) in assay [18]; 11.1 µM (inactive) in assay [19].

As to `Cc1sc2nc(-c3cccc([N+](=O)[O-])c3)c(/C=N/N=C(N)N)n2c1C`, the GI50 in assay [1] is 1.86 µM (inactive); in assay [2] it was 1.96 µM (inactive); in [3], 1.66 µM (inactive); in assay [4] it was 2.08 µM (inactive); in assay [5] it was 1.7 µM (inactive); in [6] it was 1.77 µM (inactive). In addition, the GI50 was 1.67 µM (inactive) in [7]; 1.82 µM (inactive) in assay [8]; 1.84 µM (inactive) in assay [9]; 1.75 µM (inactive) in assay [10]; 1.84 µM (inactive) in [11]; 1.67 µM in assay [12]. Moreover, the GI50 in [13] is 1.65 µM (inactive); in assay [14] it was 1.82 µM (inactive); in [16] it was 1.54 µM (inactive); in [17], 1.93 µM (inactive); in [18], 1.71 µM (inactive); in assay [19] it was 1.81 µM (inactive).

For `Cc1occc1/C(S)=N\c1ccc(Cl)c(COC(C)(C)C)c1`, the GI50 in assay [1] was 20.1 µM (inactive); in assay [2] it was 14.2 µM (inactive); in [3] it was 20.2 µM (inactive); in assay [4], 16.5 µM (inactive); in assay [5], 15.6 µM (inactive); in [6], 14.5 µM (inactive). Besides, the GI50 was 16.5 µM (inactive) in [7]; 16.4 µM (inactive) in assay [8]; 17.1 µM (inactive) in assay [9]; 13.1 µM (inactive) in assay [10]; 17.7 µM (inactive) in assay [11]; 17.2 µM in assay [12]. Besides, the GI50 in [13] was 19.4 µM (inactive); in [14], 15.1 µM (inactive); in [15] it was 12.1 µM (inactive); in assay [16], 14.8 µM (inactive); in [17], 17.9 µM (inactive); in assay [18], 16.7 µM (inactive). Further, the GI50 in assay [19] is 17.2 µM (inactive).

Turning to `OC1CN2CCS[C@H]2C(O)C1O` (some centres not stated), the GI50 in assay [1], in [2], in assay [3], in assay [4], in assay [5] and in assay [6] was > 100 µM (inactive) in each case. Besides, the GI50 in [7] is > 100 µM (inactive); in assay [8], > 100 µM (inactive); in assay [20], > 100 µM (inactive); in [10], > 100 µM (inactive); in [11], > 100 µM (inactive); in [12], over 100 µM. The GI50 in assay [13], in assay [14], in assay [15], in assay [16], in [17] and in assay [18] was > 100 µM (inactive) in each case. Further, the GI50 in assay [19] was > 100 µM (inactive).

For `CCC(C#N)NCc1cccc(CNC(C#N)CC)c1` (configuration not stated), the GI50 was > 100 µM (inactive) in assay [1]; 98.9 µM (inactive) in assay [3]; > 100 µM (inactive) in assay [4]; > 100 µM (inactive) in assay [5]; > 100 µM (inactive) in [6]; > 100 µM (inactive) in [7]. In addition, the GI50 was > 100 µM (inactive) in [8]; > 100 µM (inactive) in assay [9]; > 100 µM (inactive) in assay [10]; > 100 µM (inactive) in assay [11]; over 100 µM in [12]; 20 µM (inactive) in [13]. Moreover, the GI50 was > 100 µM (inactive) in [14]; > 100 µM (inactive) in assay [15]; 19.5 µM (inactive) in [16]; > 100 µM (inactive) in assay [17]; > 100 µM (inactive) in assay [18]; > 100 µM (inactive) in assay [19].

Turning to `CC[N+](CC)(CC)/C(=N\S(=O)(=O)c1ccc(Cl)cc1)[N-]S(=O)(=O)c1cc(C)c(Cl)cc1S`, the GI50 is 97.3 µM (inactive) in [1]; 47.3 µM (inactive) in [2]; > 100 µM (inactive) in [3]; 43.1 µM (inactive) in [5]; 60.5 µM (inactive) in assay [6]; > 100 µM (inactive) in [7]. Moreover, the GI50 in assay [8] was 85.9 µM (inactive); in [9] it was 53.2 µM (inactive); in assay [10], > 100 µM (inactive); in assay [11] it was > 100 µM (inactive); in assay [12], 66.7 µM; in assay [13], 58.2 µM (inactive). In addition, the GI50 in [14] was 83 µM (inactive); in assay [15], > 100 µM (inactive); in assay [16], 47 µM (inactive); in assay [17] it was > 100 µM (inactive); in assay [18], > 100 µM (inactive); in [19], 41 µM (inactive).

Consider `C=C1C(=O)O[C@H]2C(=O)[C@H](C)CCC[C@@](C)(O)/C=C\C[C@@]3(C)O[C@@H]3C[C@@H]12`, for which the GI50 in assay [1] is 14.5 µM (inactive); in assay [2] it was 17 µM (inactive); in [3], 27 µM (inactive); in [5], 18.3 µM (inactive); in assay [6], 2.88 µM (inactive); in [8] it was 24.5 µM (inactive). For the same molecule, the GI50 in [9] was 18.7 µM (inactive); in assay [10] it was 13.5 µM (inactive); in [11], 19.9 µM (inactive); in assay [12], 11.5 µM; in assay [13], 1.68 µM (inactive); in assay [14] it was 11.2 µM (inactive). For the same molecule, the GI50 is 23.7 µM (inactive) in assay [15]; 5.28 µM (inactive) in assay [16]; 23.3 µM (inactive) in assay [17]; 22.2 µM (inactive) in assay [18]; 26.5 µM (inactive) in [19].

The record behind these values is ChEMBL document CHEMBL1201862, “PubChem BioAssay data set” (2004).
